{
  "source": "patent US11220672B2",
  "about": "“Human pluripotent stem cell-based system for generating endothelial cells” (Wisconsin Alumni Research Foundation, priority 2014, dated 2022)",
  "key": {"ERK": {"system": "ERK", "experiment": "Western blot of ERK activity (pERK) in endothelial cells in 2D culture", "type": "cell-based, human", "conditions": "ECs on TCP (2D culture)", "excerpt": "(§1) (D) Top 10 (TPM>100, top 10 fold change) vasculature (TPM>100, Top 10 fold change) (AmiGO, GO:0001944) and cell cycle genes (AmiGO, GO:0007049) from RNA-seq. Full gene list of vasculature and cell cycle was generated by Amigo. […] Data was normalized to DMSO control (not shown). […] Data was normalized to NT control. ERK2i, siRNA of ERK2. NT, non-targeting.\n(§2) We investigated a potential role for ERK signaling on cell cycle gene expression for ECs cultured on TCP surfaces since ERK regulates EC functions that include proliferation, blood vessel morphogenesis, and mechanotransduction^34,35,43-46. […] We further investigated the role for ERK activity in regulating the shift to a proliferative phenotype by comparing the top 10 enriched cycle genes from 2D culture and vascular development genes from 3D culture (Day 3) for ECs on TCP after pERK inhibition (FIGS. 3b-d)."}, "endothelial cells (ECs)": {"system": "endothelial cells (ECs)", "type": "cell-based", "conditions": "ECs on TCP (2D culture)", "excerpt": "as §1"}, "[1]": {"system": "vasculature and cell cycle genes", "experiment": "RT-qPCR of vasculature and cell cycle gene expression in ECs on TCP", "type": "cell-based, human", "conditions": "normalized to control", "excerpt": "as §1, §2"}},
  "data": [
    {"compound": "N#CC(=C(/N)Sc1ccccc1N)/C(C#N)=C(\\N)Sc1ccccc1N", "note": "[U0126]", "values": [
      {"measurement": "ERK activity (Western blot)", "setting": "ERK", "result": "decreased ERK activity"},
      {"measurement": "EC proliferation", "setting": "endothelial cells (ECs)", "result": "decreased EC proliferation"},
      {"measurement": "cell cycle gene expression (top 10 genes, RT-qPCR)", "setting": "[1]", "result": "10 of 10 genes downregulated"},
      {"measurement": "vasculature (vascular development) gene expression (top 10 genes, RT-qPCR)", "setting": "[1]", "result": "8 of 10 genes upregulated"}
    ]}
  ]
}
